From the supplement of paper PMC11061612

Key:
[1] = system: 697 (B-Lymphoblastic Leukemia); assay: Bliss excess, mean over the matrix (fraction); higher = more synergy
Summary of the method: (§1)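 Cell lines grown in DMEM/F12 or RPMI with 10% FBS were plated in 1536-well plates and held 24 hours at 37°C, 5% CO2 before 72 hours of exposure to two-drug dose matrices, with DMSO typically at 0.2%. CellTiter-Glo 2.0 luminescence gave viability, which was converted to inhibition. Vehicle wells were set to 0 and blank wells to 1. Combination Emax is the second-highest inhibition in the matrix, and Bliss excess is the observed combination effect minus the expected EA + EB − EA·EB, where EA and EB are the single-agent effects.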

[2] = system: CFPAC-1 (Pancreatic Carcinoma); assay: as above
Summary of the method: as §1

[3] = system: COR-L95 (Small Cell Lung Carcinoma); assay: as above
Summary of the method: as §1

DSH1 (Bladder Carcinoma) [4] = assay: as above
Summary of the method: as §1

[5] = system: HPAC (Pancreatic Carcinoma); assay: as above
Summary of the method: as §1

[6] = system: JiyoyeP-2003 (Burkitt's Lymphoma); assay: as above
Summary of the method: as §1

[7] = system: KARPAS-620 (Plasma Cell Myeloma); assay: as above
Summary of the method: as §1

[8] = system: LS-513 (Colorectal Carcinoma); assay: as above
Summary of the method: as §1

RH-1 (Ewing's Sarcoma) = assay: as above
Summary of the method: as §1

[9] = system: C3A (Hepatocellular Carcinoma); assay: combination Emax (second highest fraction inhibited in the dose matrix, 72 h); higher = more inhibition; extreme values may be limits of the assay
Summary of the method: as §1

[10] = system: COR-L95 (Small Cell Lung Carcinoma); assay: as above
Summary of the method: as §1

[11] = system: DB (B-Cell Non-Hodgkin's Lymphoma); assay: as above
Summary of the method: as §1

[12] = system: DMS-273 (Small Cell Lung Carcinoma); assay: as above
Summary of the method: as §1

DSH1 (Bladder Carcinoma) [13] = assay: as above
Summary of the method: as §1

[14] = system: HT-29 (Colorectal Carcinoma); assay: as above
Summary of the method: as §1

[15] = system: KM-H2 (Hodgkin's Lymphoma); assay: as above
Summary of the method: as §1

[16] = system: MDA-MB-231 (Breast Carcinoma); assay: as above
Summary of the method: as §1

[17] = system: NALM-6 (B-Lymphoblastic Leukemia); assay: as above
Summary of the method: as §1

[18] = system: NCI-H1781 (Lung Adenocarcinoma); assay: as above
Summary of the method: as §1

[19] = system: SW756 (Cervical Carcinoma); assay: as above
Summary of the method: as §1
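Wherever Bliss excess, mean over the matrix is given: after 72 h of two-drug dosing.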

Row | SMILES | Bliss excess [1] | Bliss excess [2] | Bliss excess [3] | Bliss excess (DSH1 (Bladder Carcinoma) [4]) | Bliss excess [5] | Bliss excess [6] | Bliss excess [7] | Bliss excess [8] | Bliss excess (RH-1 (Ewing's Sarcoma)) | combination Emax [9] | combination Emax [10] | combination Emax [11] | combination Emax [12] | combination Emax (DSH1 (Bladder Carcinoma) [13]) | combination Emax [14] | combination Emax [15] | combination Emax [16] | combination Emax [17] | combination Emax [18] | combination Emax [19]
1 | COc1nnc2ccc(N3CCC(c4ccc(OCCN5CCN(C)C(=O)[C@H]5C)cc4)CC3)nn12 [AZD5153] + CCN(CCO)CCCOc1ccc2c(Nc3cc(CC(=O)Nc4cccc(F)c4)[nH]n3)ncnc2c1 [AZD2811] (first compound max 1 µM, 7x7, partner max 1 µM) | -0.0118 | -0.088 | -0.0159 | -0.0802 | -0.0283 | 0.0351 | -0.0158 | -0.102 | 0.0025 | 0.524 | 0.308 | 0.722 | 0.901 | 0.651 | 0.72 | 0.351 | 0.65 | 0.938 | 0.517 | 0.386
2 | CC1(C)CCC(CN2CCN(c3ccc(C(=O)NS(=O)(=O)c4ccc(NCC5CCOCC5)c([N+](=O)[O-])c4)c(Oc4cnc5[nH]ccc5c4)c3)CC2)=C(c2ccc(Cl)cc2)C1 [Venetoclax] + CCN(CCO)CCCOc1ccc2c(Nc3cc(CC(=O)Nc4cccc(F)c4)[nH]n3)ncnc2c1 [AZD2811] (first compound max 1 µM, 7x7, partner max 1 µM) | 0.0078 | -0.024 | 0.0474 | -0.0142 | -0.0275 | 0.0467 | 0.169 | -0.0407 | -0.0548 | 0.228 | 0.743 | 0.965 | 0.806 | 0.271 | 0.214 | 0.305 | 0.226 | 0.97 | 0.577 | 0.158
3 | Cc1cc2ncnn2cc1Nc1ncc2c(n1)n(C1CCOCC1)c(=O)n2C [AZD7648] + C=CCn1c(=O)c2cnc(Nc3ccc(N4CCN(C)CC4)cc3)nc2n1-c1cccc(C(C)(C)O)n1 [AZD1775] (first compound max 10 µM, partner max 1 µM) | 0 | 0.0525 | -0.0543 | 0.0281 | 0.0067 | 0.0246 | -0.0493 | -0.023 | 0.016 | 0.521 | 0.583 | 0.786 | 0.611 | 0.463 | 0.816 | 0.933 | 0.434 | 0.898 | 0.482 | 0.442
4 | NC1(C(=O)N[C@@H](CCO)c2ccc(Cl)cc2)CCN(c2ncnc3[nH]ccc23)CC1 [Capivasertib] + CC(C)n1c(=O)n(C)c2cnc3cc(F)c(-c4ccc(OCCCN5CCCCC5)nc4)cc3c21 [AZD1390] (first compound max 10 µM, 7x7, partner max 0.3 µM) | -0.0197 | -0.0828 | -0.0425 | -0.0895 | -0.0699 | -0.024 | -0.0273 | -0.0511 | -0.0292 | 0.255 | 0.164 | 0.386 | 0.71 | 0.615 | 0.345 | 0.222 | 0.334 | 0.675 | 0.485 | 0.31
5 | Cc1c2c(nn1C)CSCc1cc(n(C)n1)CSc1cc(c3ccccc3c1)OCCCc1c(C(=O)O)n(C)c3c-2c(Cl)ccc13 [AZD5991] + C1CN(CCC1(C(=O)N[C@@H](CCO)C2=CC=C(C=C2)Cl)N)C3=NC=NC4=C3C=CN4 [Capivasertib] (first compound max 1 µM, 7x7, partner max 3 µM) | -0.034 | 0.0021 | 0.0071 | 0.001 | -0.0239 | 0.0371 | -0.0097 | -0.0343 | 0.0157 | 0.254 | 0.409 | 0.987 | 0.987 | 0.927 | 0.236 | 0.143 | 0.194 | 0.694 | 0.76 | 0.136
6 | Cc1c2c(nn1C)CSCc1cc(n(C)n1)CSc1cc(c3ccccc3c1)OCCCc1c(C(=O)O)n(C)c3c-2c(Cl)ccc13 [AZD5991] + Cn1cnc2c(F)c(Nc3ccc(Br)cc3Cl)c(C(=O)NOCCO)cc21 [Selumetinib] (first compound max 1 µM, 7x7, partner max 3 µM) | -0.0462 | 0.0044 | -0.039 | -0.0881 | 0.005 | 0.0039 | 0.0919 | -0.0242 | -0.0127 | 0.487 | 0.306 | 1 | 0.987 | 0.489 | 0.706 | 0.191 | 0.4 | 0.369 | 0.492 | 0.336
7 | COc1nnc2ccc(N3CCC(c4ccc(OCCN5CCN(C)C(=O)[C@H]5C)cc4)CC3)nn12 [AZD5153] + C[C@@H]1COCCN1C2=NC(=NC(=C2)C3(CC3)[S@](=N)(=O)C)C4=C5C=CNC5=NC=C4 [AZD6738] (first compound max 1 µM, 7x7, partner max 10 µM) | -0.0106 | 0.015 | -0.0357 | 0.0321 | 0.0368 | -0.047 | -0.0429 | -0.0211 | 0.0071 | 0.741 | 0.547 | 0.811 | 0.883 | 0.808 | 0.863 | 0.89 | 0.81 | 0.958 | 0.491 | 0.447
8 | Cc1c2c(nn1C)CSCc1cc(n(C)n1)CSc1cc(c3ccccc3c1)OCCCc1c(C(=O)O)n(C)c3c-2c(Cl)ccc13 [AZD5991] + CC1(C)CCC(CN2CCN(c3ccc(C(=O)NS(=O)(=O)c4ccc(NCC5CCOCC5)c([N+](=O)[O-])c4)c(Oc4cnc5[nH]ccc5c4)c3)CC2)=C(c2ccc(Cl)cc2)C1 [Venetoclax] (first compound max 1 µM, 7x7, partner max 1 µM) | -0.0564 | -0.0112 | 0.0616 | 0.0397 | -0.0498 | 0.0249 | 0.119 | -0.0523 | 0.0491 | 0.181 | 0.914 | 1 | 0.964 | 0.964 | 0.189 | 0.312 | 0.216 | 0.949 | 0.432 | 0.185
9 | CCc1c2c(nc3ccc(O)cc13)-c1cc3c(c(=O)n1C2)COC(=O)[C@]3(O)CC [SN-38] + CN(C)CCCOc1ccc(-c2ccc3ncc4c(c3c2)n(C2CCOCC2)c(=O)n4C)cn1 [AZD0156] (first compound max 0.3 µM, 7x7, partner max 1 µM) | 0.0689 | -0.0436 | -0.0989 | -0.0382 | 0.0584 | 0.0406 | -0.0242 | -0.0878 | 0.0845 | 0.557 | 0.789 | 0.97 | 0.802 | 0.904 | 0.89 | 0.907 | 0.658 | 1 | 0.99 | 0.79
10 | COc1cccc(OCCCN)c1-c1cc(Nc2cnc(C#N)cn2)n[nH]1 [Prexasertib] + O=C(c1cc(Cc2n[nH]c(=O)c3ccccc23)ccc1F)N1CCN(C(=O)C2CC2)CC1 [Olaparib] (first compound max 1 µM, 7x7, partner max 10 µM) | 0.0371 | -0.0834 | -0.121 | -0.162 | -0.149 | -0.0421 | -0.046 | -0.0666 | -0.0203 | 0.53 | 0.682 | 0.687 | 0.919 | 0.688 | 0.84 | 0.877 | 0.639 | 0.96 | 0.631 | 0.456
11 | COc1cccc(OCCCN)c1-c1cc(Nc2cnc(C#N)cn2)n[nH]1 [Prexasertib] + CN(C)CCCOc1ccc(-c2ccc3ncc4c(c3c2)n(C2CCOCC2)c(=O)n4C)cn1 [AZD0156] (first compound max 1 µM, 7x7, partner max 1 µM) | -0.0087 | 0.0232 | -0.0723 | -0.0243 | 0.0404 | -0.0003 | 0.0277 | 0.0156 | 0.0241 | 0.613 | 0.644 | 0.771 | 0.923 | 0.82 | 0.858 | 0.933 | 0.743 | 0.923 | 0.45 | 0.379
12 | COc1cccc(OCCCN)c1-c1cc(Nc2cnc(C#N)cn2)n[nH]1 [Prexasertib] + C[C@@H]1COCCN1C2=NC(=NC(=C2)C3(CC3)[S@](=N)(=O)C)C4=C5C=CNC5=NC=C4 [AZD6738] (first compound max 1 µM, 7x7, partner max 10 µM) | 0.0031 | -0.0284 | 0.0074 | -0.0083 | -0.0351 | -0.0065 | -0.0375 | -0.0183 | 0.0014 | 0.528 | 0.675 | 0.748 | 0.916 | 0.852 | 0.857 | 0.92 | 0.705 | 0.943 | 0.486 | 0.426
13 | CC1(C)CCC(CN2CCN(c3ccc(C(=O)NS(=O)(=O)c4ccc(NCC5CCOCC5)c([N+](=O)[O-])c4)c(Oc4cnc5[nH]ccc5c4)c3)CC2)=C(c2ccc(Cl)cc2)C1 [Venetoclax] + COc1cc(Nc2ncc3c(n2)-c2ccc(Cl)cc2C(c2c(F)cccc2OC)=NC3)ccc1C(=O)O [Alisertib] (first compound max 1 µM, 7x7, partner max 10 µM) | 0.0193 | -0.0475 | 0.134 | 0.128 | -0.0517 | -0.0161 | 0.284 | -0.0655 | -0.0065 | 0.302 | 0.705 | 0.949 | 0.767 | 0.53 | 0.418 | 0.448 | 0.392 | 0.977 | 0.665 | 0.273
